Seven compounds from patent publication US5607926A, “Cephalosporin antibiotics” (Microcide Pharmaceuticals, Inc., priority 1995, dated 1997) can be followed below.

The term MIC denotes the lowest concentration that inhibits growth of the organism.

Common to all, as to type: cell-based
For one assay, the system named is P. aeruginosa ATCC 27853. Put plainly: In vitro antibacterial evaluation, MIC by agar dilution, P. aeruginosa ATCC 27853. Conditions: Pseudomonas aeruginosa, ATCC27853, read-out: MIC. The method, boiled down: (§1)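 Minimum inhibitory concentrations came from the NCCLS agar dilution method in Mueller-Hinton agar. Each isolate received about 10^4 cfu per spot, and plates were read after 16-20 hours at 35°-36° C.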
For orientation: Agar dilution tests growth on a series of plates holding different concentrations.

Assay [1] deals with S. aureus Col8A (Meth^S)(lac^-). Put plainly: In vitro antibacterial evaluation, MIC by agar dilution, S. aureus Col8A. The conditions noted are these: Staphylococcus aureus. The method, boiled down: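 Agar dilution per NCCLS (1991): two-fold dilutions from 128 μg/mL down to ≤0.25 μg/mL in Mueller-Hinton agar, each level in duplicate. Spots of about 10^4 cfu of log-phase culture; 16-20 h at 35°-36° C. MIC in μg/ml is the lowest concentration inhibiting growth.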

In a further assay the test system is S. aureus ATCC 29213. Nature of the assay: In vitro antibacterial evaluation, MIC by agar dilution, S. aureus ATCC 29213. Conditions: Staphylococcus aureus, ATCC29213. The gist of the method:
as §1

The next assay deals with S. haemolyticus (Meth^R). Nature of the assay: In vitro antibacterial evaluation, MIC by agar dilution, S. haemolyticus. Conditions: Staphylococcus haemolyticus, read-out: MIC. The method, boiled down: as §1
In assay [2] the test system is S. epidermidis ATCC 31432. Put plainly: In vitro antibacterial evaluation, MIC by agar dilution, S. epidermidis ATCC 31432. The conditions noted are these: Staphylococcus epidermidis, ATCC31432. The method, then: (§2) The compounds of the invention were evaluated against several β-lactamresistant bacteria strains by determining the minimum inhibitory concentration (MIC, μg/ml) of each compound with respect to each strain. The MIC, the lowest concentration of antibiotic which inhibits growth of the test organism, was determined by the agar dilution method.
(§3) To determine the MIC for bacterial isolates, the test compound was incorporated in a series of two-fold dilutions into liquified Mueller-Hinton agar. Upon solidification, a number of different bacterial strains were spot inoculated with a replicating device onto the agar surface. […] The procedures used in these studies have been standardized by the National Committee for Clinical Laboratory Standards (NCCLS), as per the NCCLS publication entitled METHODS FOR DILUTION ANTIMICROBIAL SUSCEPTIBILITY TESTS (1991), which is incorporated herein by reference.
(§4) Aliquots of antimicrobial agents were prepared in phosphate buffered saline (PBS) at pH 7.2. Tween 20 or DMSO was used as a solubilizing vehicle as needed. Standard methods of vortexing, sonicating and gentle heat were used to facilitate solubilizing the test agent. Typically, the concentration of the stock solution was 10× that of the highest drug concentration tested. A 1.28 mg/mL stock solution was used with a subsequent highest working concentration of 128 μg/mL. Serial two-fold dilutions were done through ≤0.25 μg/mL. Each drug level was tested in duplicate. Two-fold drug dilutions were done in sterile 50 mL tubes with a final drug volume of 5 mL. Upon the addition of 45 mL of molten agar, a 10-fold dilution resulted. Two, 25 mL. plates were then poured into 15×150 mm square Petri plates with grids and allowed to harden.
(§5) A control plate with a reference drug, either cefotaxime, vancomycin or imipenem, was used as the positive growth control. Stock concentrations of reference antibiotics were prepared and frozen at -80° C. Upon preparation, the control plates were sealed and stored in the refrigerator for up to 1 week prior to use; however, imipenem control plates had to be prepared just prior to use. All test plates were used within 24 hours of preparation.
(§6) Satisfactory results were obtained where the inoculum contained about 10^4 colony forming units (cfu) ±0.5 logs. Starting with pure cultures of the test isolates on agar plates, a few isolated colonies were transferred to a tube of nutrient broth and allowed to grow 4-6 hours at 35°-36° C. to reach log-phase growth. Dropwise addition of the broth culture to PBS was done to match a 0.5 McFarland turbidity standard equal to 10^8 cfu/mL. This was further diluted ten-fold in PBS to reach a working inoculum concentration of 10^7 cfu/mL. When 1 μL of the working inoculum was applied to the agar surface a concentration of about 10^4 cfu per spot was obtained.
(§7) Disposable sterile 1 μL loops were used to inoculate test plates, with each isolate in a designated grid on the agar plate. An alternate method of inoculation involved the use of a replica plater, a device with 48 steel pins allowing the simultaneous inoculation of multiple isolates. After the spots had dried, the plates were incubated at 35°-36° C. for 16-20 hours. Endpoints were assessed as the minimum inhibitory concentration (MIC) of antimicrobial agent.

Assay [3] relates to S. aureus 76 (Meth^R)(lac^+). Nature of the assay: In vitro antibacterial evaluation, MIC by agar dilution, S. aureus 76. The conditions noted are these: Staphylococcus aureus, read-out: MIC. The method, boiled down:
as §1

The test system of the next assay is E. faecium ATCC 35667. Put plainly: In vitro antibacterial evaluation, MIC by agar dilution, E. faecium ATCC 35667. Conditions: Enterococcus faecium, ATCC35667, read-out: MIC. The gist of the method:
as §1

The subject of a further assay is E. coli ATCC 25922. Put plainly: In vitro antibacterial evaluation, MIC by agar dilution, E. coli ATCC 25922. The conditions noted are these: Escherichia coli, ATCC25922, read-out: MIC. The method, boiled down: as §1
The subject of another assay is S. aureus ATCC 25923. Nature of the assay: In vitro antibacterial evaluation, MIC by agar dilution, S. aureus ATCC 25923. Conditions: Staphylococcus aureus, ATCC25923. On the procedure: as §2, §3, §4, §5, §6, §7
Another assay concerns E. faecalis ATCC 29212. Nature of the assay: In vitro antibacterial evaluation, MIC by agar dilution, E. faecalis ATCC 29212. The conditions noted are these: Enterococcus faecalis, ATCC29212; E. faecalis ATCC 29212; read-out: MIC. The method, boiled down:
as §1

≈ marks a conversion by molar mass, not a printed value.

Turning to `O=C(COc1ccc(Cl)cc1)N[C@@H]1C(=O)N2C(C(=O)O)=C(Sc3ccccc3I)CS[C@H]12` [Cmpd 30, (7R)-7-[(p-Chlorophenoxyacetyl)amino]-3-(o-iodophenylthio)-3-cephem-4-carboxylic acid], the MIC with P. aeruginosa ATCC 27853 was 13 µg/mL (≈ 21.6 µM); in assay [1] it was less than 0.25 µg/mL; in the assay on S. aureus ATCC 29213 it was less than 0.25 µg/mL; with S. haemolyticus (Meth^R) it was 4 µg/mL (≈ 6.64 µM); in assay [2] it was less than 0.25 µg/mL; in [3], 2 µg/mL (≈ 3.32 µM). In addition, the MIC with E. faecium ATCC 35667 is 1 µg/mL (≈ 1.66 µM); in the assay with E. coli ATCC 25922, greater than 32 µg/mL.

Regarding `N#CCC(=O)N[C@@H]1C(=O)N2C(C(=O)O)=C(Sc3ccccc3-c3ccccc3)CS[C@H]12` [Cmpd 34, (7R)-7-[(Cyanoacetyl)amino]-3-(2-biphenylthio)-3-cephem-4-carboxylic acid], the MIC is greater than 32 µg/mL with P. aeruginosa ATCC 27853; less than 0.25 µg/mL in assay [1]; less than 0.25 µg/mL with S. aureus ATCC 25923; 8 µg/mL (≈ 17.7 µM) with S. haemolyticus (Meth^R); less than 0.25 µg/mL in [2]; 8 µg/mL (≈ 17.7 µM) in assay [3]. Further, the figures for the MIC in the assay with E. faecium ATCC 35667, in the assay on E. coli ATCC 25922 and in the assay on E. faecalis ATCC 29212 were 2 µg/mL (≈ 4.43 µM), greater than 32 µg/mL and 2 µg/mL (≈ 4.43 µM), respectively.

For `O=C(CSc1ccccc1)N[C@@H]1C(=O)N2C(C(=O)O)=C(Sc3cc(Cl)ccc3Cl)CS[C@H]12` [Cmpd 35, (7R)-7-[(Phenylthioacetyl)amino]-3-(2,5-dichlorophenylthio)-3-cephem-4-carboxylic acid], the MIC was greater than 32 µg/mL in the assay with P. aeruginosa ATCC 27853; less than 0.25 µg/mL in [1]; less than 0.25 µg/mL in the assay with S. aureus ATCC 25923; 8 µg/mL (≈ 15.2 µM) with S. haemolyticus (Meth^R); less than 0.25 µg/mL in assay [2]; 2 µg/mL (≈ 3.79 µM) in assay [3]. Moreover, the figures for the MIC in the assay with E. faecium ATCC 35667, in the assay on E. coli ATCC 25922 and in the assay with E. faecalis ATCC 29212 were 1 µg/mL (≈ 1.9 µM), greater than 32 µg/mL and 1 µg/mL (≈ 1.9 µM), respectively.

Take `C=Cc1ccccc1SC1=C(C(=O)O)N2C(=O)[C@@H](NC(=O)Cc3ccccc3)[C@H]2SC1` [Cmpd 36, (7R)-7-[(Phenylacetyl)amino]-3-(2-vinylphenylthio)-3-cephem-4-carboxylic acid]: the MIC is greater than 32 µg/mL in the assay with P. aeruginosa ATCC 27853; less than 0.25 µg/mL in [1]; less than 0.25 µg/mL against S. aureus ATCC 25923; 16 µg/mL (≈ 35.4 µM) in the assay on S. haemolyticus (Meth^R); less than 0.25 µg/mL in assay [2]; 8 µg/mL (≈ 17.7 µM) in [3]. Further, the MIC with E. faecium ATCC 35667 was 4 µg/mL (≈ 8.84 µM); in the assay with E. coli ATCC 25922 it was greater than 32 µg/mL; with E. faecalis ATCC 29212, 2 µg/mL (≈ 4.42 µM).

Consider `O=C(Cc1ccccc1)N[C@@H]1C(=O)N2C(C(=O)O)=C(Sc3ccccc3-c3cccs3)CS[C@H]12` [Cmpd 37, (7R)-7-[(Phenylacetyl)amino]-3-(2-(2-thienyl)phenylthio)-3-cephem-4-carboxylic acid], for which the MIC is greater than 32 µg/mL in the assay on P. aeruginosa ATCC 27853; less than 0.25 µg/mL in assay [1]; less than 0.25 µg/mL in the assay on S. aureus ATCC 25923; 16 µg/mL (≈ 31.5 µM) in the assay with S. haemolyticus (Meth^R); less than 0.25 µg/mL in [2]; 8 µg/mL (≈ 15.7 µM) in assay [3]. In addition, the MIC in the assay on E. faecium ATCC 35667 is 2 µg/mL (≈ 3.93 µM); in the assay with E. coli ATCC 25922, greater than 32 µg/mL; in the assay on E. faecalis ATCC 29212, 2 µg/mL (≈ 3.93 µM).

On to `O=C(Cc1ccccc1)N[C@@H]1C(=O)N2C(C(=O)O)=C(Sc3ccccc3CO)CS[C@H]12` [Cmpd 38, (7R)-7-[(Phenylacetyl)amino]-3-(2-hydroxymethylphenylthio)-3-cephem-4-carboxylic acid], for which the MIC is greater than 32 µg/mL in the assay on P. aeruginosa ATCC 27853; less than 0.25 µg/mL in assay [1]; less than 0.25 µg/mL with S. aureus ATCC 25923; 32 µg/mL (≈ 70.1 µM) in the assay on S. haemolyticus (Meth^R); less than 0.25 µg/mL in assay [2]; 16 µg/mL (≈ 35 µM) in [3]. Also, the MIC with E. faecium ATCC 35667 was 4 µg/mL (≈ 8.76 µM); in the assay on E. coli ATCC 25922 it was greater than 32 µg/mL; in the assay with E. faecalis ATCC 29212, 4 µg/mL (≈ 8.76 µM).

Regarding `O=C(Cc1ccccc1)N[C@@H]1C(=O)N2C(C(=O)O)=C(Sc3cccc4ccccc34)CS[C@H]12` [Cmpd 54, (7R)-7-[(Phenylacetyl)amino]-3-(1-naphthalenylthio)-3-cephem-4-carboxylic acid], the MIC with P. aeruginosa ATCC 27853 is greater than 32 µg/mL; in [1], less than 0.25 µg/mL; against S. aureus ATCC 29213, less than 0.25 µg/mL; in the assay on S. haemolyticus (Meth^R), 16 µg/mL (≈ 33.6 µM); in assay [2], less than 0.25 µg/mL; in [3], 8 µg/mL (≈ 16.8 µM). The MIC in the assay with E. faecium ATCC 35667 was 4 µg/mL (≈ 8.39 µM); in the assay on E. coli ATCC 25922, greater than 32 µg/mL.
